Calls of active or inactive are those of the source.
Tests used:
[1] = target: T1, Short transient receptor potential channel 4 (Mus musculus, UniProt Q9QUQ5); assay: block of DAMGO-driven TRPC4 calcium entry – cell-based, HEK293 TRPC4/mu-opioid, Fluo-4 calcium, dose response (AID 434942); assay type: functional;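 note: potency of inhibitors blocking the TRPC4 calcium response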
T1 sequence (Q9QUQ5 whole entry): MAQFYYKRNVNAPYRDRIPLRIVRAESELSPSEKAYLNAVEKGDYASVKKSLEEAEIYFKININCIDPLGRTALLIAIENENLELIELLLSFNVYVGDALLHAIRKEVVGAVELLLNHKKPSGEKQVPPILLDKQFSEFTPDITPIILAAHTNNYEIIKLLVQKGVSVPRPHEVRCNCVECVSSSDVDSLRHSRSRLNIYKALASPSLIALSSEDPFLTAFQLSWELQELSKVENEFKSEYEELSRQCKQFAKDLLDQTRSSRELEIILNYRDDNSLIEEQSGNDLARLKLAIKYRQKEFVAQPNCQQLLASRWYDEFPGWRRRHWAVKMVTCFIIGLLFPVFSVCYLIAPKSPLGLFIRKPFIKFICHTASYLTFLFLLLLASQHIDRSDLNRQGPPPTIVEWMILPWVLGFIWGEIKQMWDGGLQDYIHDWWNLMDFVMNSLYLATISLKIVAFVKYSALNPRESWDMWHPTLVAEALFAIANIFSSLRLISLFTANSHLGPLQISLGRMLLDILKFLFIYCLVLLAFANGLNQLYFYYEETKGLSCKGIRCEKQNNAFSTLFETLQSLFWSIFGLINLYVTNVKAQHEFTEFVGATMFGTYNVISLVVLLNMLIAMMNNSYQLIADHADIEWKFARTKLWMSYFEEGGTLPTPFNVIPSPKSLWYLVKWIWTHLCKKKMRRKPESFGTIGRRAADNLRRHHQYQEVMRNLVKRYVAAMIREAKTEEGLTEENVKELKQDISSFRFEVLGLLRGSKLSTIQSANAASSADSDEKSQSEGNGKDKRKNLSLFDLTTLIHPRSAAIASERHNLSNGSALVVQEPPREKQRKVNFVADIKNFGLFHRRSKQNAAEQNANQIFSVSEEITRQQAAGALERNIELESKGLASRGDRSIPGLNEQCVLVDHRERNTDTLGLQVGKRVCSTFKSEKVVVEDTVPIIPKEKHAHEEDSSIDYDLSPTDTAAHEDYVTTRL

[2] = P. falciparum Dd2 growth inhibitors, dose response, SYBR Green, cherry-picked samples (AID 1159567); assay type: functional, cell-based
[3] = Luminescence Cell-Based Dose Response HTS to Identify Inhibitors of 5'UTR Stem-Loop Driven Prion Protein mRNA Translation in H4 Neuroglioblastoma Cells. [Related pubchem assays: 1827 (Project Summary), 1813 (Primary HTS)]; assay type: functional
[4] = luciferase reporter signal suppression in cells – H4 neuroglioma cells, luminescence, dose response (AID 1990); assay type: functional, cell-based
[5] = alpha-synuclein stem-loop luciferase translation blockers – H4 neuroglioma cells, luminescence, confirmation (AID 1988); assay type: functional, cell-based
[6] = target: T2, Calpain-2 catalytic subunit (Sus scrofa, UniProt P43367); assay: m-calpain protease blockers, concentration series – biochemical, fluorogenic peptide substrate, dose response (AID 1420); assay type: functional
T2 sequence (P43367 whole entry): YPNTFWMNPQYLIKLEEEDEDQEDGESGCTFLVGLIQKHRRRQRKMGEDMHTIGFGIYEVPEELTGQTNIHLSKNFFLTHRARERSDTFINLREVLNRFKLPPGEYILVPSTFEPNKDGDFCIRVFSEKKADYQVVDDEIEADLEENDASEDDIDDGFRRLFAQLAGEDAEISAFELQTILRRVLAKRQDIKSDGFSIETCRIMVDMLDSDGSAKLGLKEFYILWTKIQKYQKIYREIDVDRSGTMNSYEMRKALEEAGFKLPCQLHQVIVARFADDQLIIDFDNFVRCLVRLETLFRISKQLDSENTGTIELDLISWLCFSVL

BJ [7] = assay: BJ-TERT fibroblast viability loss – cell-based, RAS-independent, luminescence, dose response (AID 1933); assay type: functional; conditions: Homo sapiens
[8] = DRD fibroblast viability loss – cell-based, non-viral oncogenic, luminescence, dose response (AID 1934); assay type: functional; conditions: Homo sapiens
BJ [9] = assay: BJ-TERT-LT-ST fibroblast viability loss – cell-based, RAS-independent, luminescence, dose response (AID 1935); assay type: functional; conditions: Homo sapiens;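 note: BJ fibroblasts immortalized with TERT plus LT and ST oncogenes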
BJ [10] = assay: cells; assay type: functional, cell-based; conditions: Homo sapiens
[11] = target: FAD-linked sulfhydryl oxidase ALR (Homo sapiens, UniProt P55789); assay: ALR-catalysed DTT oxidation blockers – biochemical, H2O2 detection, luminescence, cherry-pick, dose response (AID 493248)
FAD-linked sulfhydryl oxidase ALR, sequence (P55789 whole entry, the tested form may be a part): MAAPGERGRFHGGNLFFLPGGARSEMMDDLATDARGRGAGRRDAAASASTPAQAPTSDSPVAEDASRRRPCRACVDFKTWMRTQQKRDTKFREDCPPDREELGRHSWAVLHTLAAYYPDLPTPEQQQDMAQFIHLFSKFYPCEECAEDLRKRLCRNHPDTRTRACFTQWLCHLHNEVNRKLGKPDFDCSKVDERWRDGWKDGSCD

[12] = blockers of HIV-1 envelope-mediated cell-cell fusion – cherry-pick, dose response (AID 652057); assay type: functional, cell-based
[13] = HIV-1 AD8 envelope cell-cell fusion blockers – cherry-pick, dose response (AID 652062); assay type: functional, cell-based;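 note: luciferase signal from cell-cell fusion driven by HIV-1 clade B AD8 Env; potency is for inhibitors of fusion seen as a drop in luminescence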
[14] = NIH-3T3 fibroblast cytotoxicity, dose response, cytotoxicity control, cell-based, fluorescence, Alamar Blue, secondary assay (AID 2327); assay type: functional;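 note: NIH-3T3 mouse fibroblasts cultured with fluconazole at 8 µg/mL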
[15] = NIH3T3 cell viability loss – ATP luminescence, mouse fibroblasts, counter-screen, dose response (AID 2010); assay type: functional, cell-based;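 note: cells exposed to compound for about 90 hours before reading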
[16] = Trypanosoma cruzi growth suppression in host cells – NIH3T3 host cells, beta-gal luminescence, confirmation (AID 2044); assay type: functional, cell-based;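 note: intracellular parasites grown in NIH/3T3 mouse fibroblasts as host cells; luminescent beta-galactosidase reporter signal from transgenic T. cruzi replicating inside host cells; inhibitors lower the luminescence signal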
[17] = viability of PTEN-deleted HCT116 cells – cell-based, HCT116 PTEN knockout, dose response (AID 1047); assay type: functional;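 note: HCT116 colon tumor cells with PTEN knocked out; cells exposed to compound for 60 hours before readout; potency for loss of cell viability measured by luminescence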

With `CC(C)N=C(S)N1CCN(C/C=C/c2ccccc2)CC1` the EC50 [1] was 4.73 µM (active).
With `O=C(C1CCCCC1)N1CC(=O)N2[C@H](CO)[C@@H](c3ccc(C#CCc4ccccc4)cc3)[C@@H]2C1` the AC50 [2] was 5.61 µM (active).
For `COc1ccc(C2=NOC(Cn3c(Cc4ccc(Cl)cc4)nc4c3c(=O)n(C)c(=O)n4C)C2)cc1` (stereo not given), the EC50 [3] was > 120 µM (not active), the EC50 [4] was > 120 µM (not active) and the EC50 [5] was > 120 µM (not active).
In the case of `COc1cccc(CN2CC3(CN(Cc4ccccn4)C3)c3c([nH]c4cc(OC)ccc34)[C@@H]2CO)c1`, the AC50 [2] is reported as 6.62 µM (active).
For `C[C@H]1CN([C@@H](C)CO)C(=O)c2c(c3ccccc3n2C)-c2ccccc2CO[C@@H]1CN(C)Cc1ccc(Oc2ccccc2)cc1`, the AC50 [2] was 1.76 µM (active).
In the case of `COc1ccc(-n2c(=S)[nH]c3cc(C(=O)Nc4ccc(OC)c(OC)c4)ccc3c2=O)cc1`, the IC50 [6] is reported as 22.5 µM (not active).
With `Cc1c(C(=O)c2ccc(Cl)c([N+](=O)[O-])c2)c2ccccn2c1CCC#N` the EC50 (BJ [7]) was > 150 µM (not active), the EC50 [8] was > 150 µM (not active) and the EC50 (BJ [9]) was > 150 µM (inconclusive). For the same compound, the EC50 (BJ [10]) was > 150 µM (not active).
In the case of `CCOC(=O)C1(Cc2ccccc2)CCN(Cc2ccc(C)s2)CC1`, the EC50 [1] is reported as 0.133 µM (active).
With `O=C(CCC(=O)c1cccs1)Nc1ccc(N2CCCCC2)cc1` the AC50 [11] was 6.49 µM (active).
With `O=C(NCCCn1ccnc1)C(=O)NCC(c1ccco1)N1CCN(c2ccccc2)CC1` (stereo not given) the AC50 [11] was 3.74 µM (active).
For `CCOC(=O)CSc1nc2c(sc(=S)n2-c2ccccc2OC)c(=O)n1-c1ccccc1OC`, the EC50 [1] was 2.37 µM (active).
In the case of `O=C(CCN1C(=O)/C(=C/c2ccc3c(c2)OCO3)SC1=S)Nc1ccccc1`, the IC50 [6] is reported as 24.8 µM (not active).
With `CSc1ncccc1C(=O)OCC(=O)Nc1ccc(C)c(S(=O)(=O)N2CCOCC2)c1` the AC50 [12] was 53.2 µM (active).
With `C/C=C/c1ccc([C@@H]2[C@H]3CNC[C@@H]2N3Cc2cc(F)ccc2F)cc1` the AC50 [2] was 4 µM (active).
With `CC1(c2ccccc2)CC(C)(C)N(C(=O)C2CCCO2)c2ccccc21` (stereo not given) the EC50 [1] was 3.76 µM (active).
In the case of `COc1cc(OC)cc(C(=O)Nc2ccc3c(c2)COC3=O)c1`, the IC50 [6] is reported as 5.36 µM (not active).
For `Cc1ccc(S(=O)(=O)N(C)C[C@H]2Oc3ncc(Br)cc3C(=O)N([C@@H](C)CO)C[C@@H]2C)cc1`, the AC50 [13] was 5.51 µM (active) and the AC50 [12] was 4.57 µM (active).
For `COc1ccccc1NC(=O)c1cc(O)nc2ccccc12`, the AC50 [11] was 0.202 µM (active).
With `CC(=O)Nc1nc2ccccc2n1Cc1ccccc1C` the EC50 [3] was 14.2 µM (active), the EC50 [4] was 14.5 µM (active) and the EC50 [5] was 11.5 µM (active).
For `O=S(=O)(c1ccccc1)c1cc(O)ccc1O`, the AC50 [11] was 6.08 µM (active).
For `Cc1nn(-c2nc3ccccc3n2Cc2ccccc2)c2c1C(=O)CC(C)(C)C2`, the EC50 [1] was 2.11 µM (active).
In the case of `COc1cccc2c(N/N=C/c3ccccc3)cc(C)nc12`, the AC50 [11] is reported as 6.41 µM (active).
With `c1ccc(Oc2nc(Oc3ccccc3)nc(N3CCOCC3)n2)cc1` the IC50 [6] was < 0.4 µM (not active).
In the case of `Nc1c(S(=O)(=O)c2cccc(Cl)c2)c2nc3ccccc3nc2n1/N=C/c1ccc(O)c(O)c1`, the EC50 [14] is reported as > 160 µM (inconclusive), the EC50 [3] is reported as 12.5 µM (active) and the EC50 [15] is reported as 6.98 µM (active). The EC50 [16] was 3.16 µM (active), the EC50 [4] was 11.4 µM (active) and the EC50 [5] was 9.66 µM (active).
For `Cn1nc(CC(=O)N2CCN(c3ccccc3)CC2)c2ccccc2c1=O`, the IC50 [6] was 13.1 µM (not active).
For `CCS(=O)(=O)N1CCC2(CC1)CN(Cc1cc(F)ccc1F)[C@H](CO)c1c2c2ccc(OC)cc2n1C`, the AC50 [2] was 6.16 µM (active).
With `CCc1cccc(CC)c1NC(=O)c1cc(CN2C(=O)c3ccccc3C2=O)ccc1OC` the IC50 [6] was 3.81 µM (not active).
For `COc1ccc(N2CCN(C(=O)CCn3nnc4ccccc43)CC2)cc1`, the AC50 [11] was 6.11 µM (active).
In the case of `CC(=O)OCCCN1C(=O)c2cccc3cc(Br)cc(c23)C1=O`, the EC50 [1] is reported as 0.211 µM (active).
In the case of `Cc1c(CCOC(=O)c2cccc([N+](=O)[O-])c2)sc[n+]1CC(=O)c1ccccc1`, the EC50 [1] is reported as 6.68 µM (active).
In the case of `OC[C@@H]1Nc2ccc(C3=CCCCC3)cc2[C@@H]2[C@H]1CCN2Cc1nccs1`, the AC50 [2] is reported as 6.24 µM (active).
In the case of `C[C@H]1CN([C@@H](C)CO)C(=O)c2c(c3ccccc3n2C)-c2ccccc2CO[C@@H]1CN(C)S(=O)(=O)c1ccc(C(F)(F)F)cc1`, the AC50 [2] is reported as 4.6 µM (active).
For `COc1ccc(C(=O)NNC2=Nc3cccc4cccc2c34)cc1`, the EC50 [3] was 16.6 µM (active), the EC50 [4] was > 120 µM (not active) and the EC50 [5] was > 120 µM (not active).
In the case of `Clc1ccc2c(c1)-c1nnc(Br)n1-c1ccccc1S2`, the EC50 [1] is reported as 5.96 µM (active).
In the case of `Cc1cc(C)c2nc(O)c(CN(Cc3cccnc3)C(S)=NCCCN(C)C)cc2c1`, the EC50 [1] is reported as 2.37 µM (active).
For `O=C(O)c1cccc(NC(=O)c2cc(-c3cccc(Cl)c3)nc3ccccc23)c1`, the AC50 [11] was 0.01 µM (active).
For `Cc1ccc(C(=O)NNC(=O)c2ccc3ncccc3c2)cc1`, the IC50 [6] was 9.29 µM (not active).
In the case of `CC(C)c1ccc(Nc2c([N+](=O)[O-])c(=O)n(C)c3ccccc23)cc1`, the IC50 [6] is reported as 3.37 µM (not active).
For `COC(=O)N/N=C/c1cn(Cc2ccc(F)cc2)c2ccccc12`, the EC50 [3] was 12.8 µM (active), the EC50 [4] was 9.2 µM (active) and the EC50 [5] was 7.94 µM (active).
For `COc1cc(/C=N/n2c(C)nnc2S)ccc1OCc1ccccc1`, the AC50 [11] was 0.861 µM (active).
In the case of `COc1ccc(C(CNC(=O)c2oc3ccc(F)cc3c2C)N2CCCCC2)cc1` (stereo not given), the EC50 [1] is reported as 1.88 µM (active).
With `N#C[C@@H]1[C@H](c2ccccc2-c2cccc(F)c2)[C@H](CO)N1C(=O)C1CCCC1` the AC50 [2] was 2.8 µM (active).
With `CCCn1c(SCC(=O)c2ccc3c(c2)NC(=O)CO3)nc2ccccc21` the EC50 [17] was 22.4 µM (active).
For `CC(C)OC(=O)CSc1nnc(COc2ccc([N+](=O)[O-])cc2)n1C`, the IC50 [6] was 9.11 µM (not active).
For `COc1cc2c(cc1OC)CN(C(=O)c1cc(=O)c3ccccc3o1)CC2`, the EC50 (BJ [7]) was 18.6 µM (active), the EC50 [8] was 14.1 µM (active) and the EC50 (BJ [9]) was > 150 µM (inconclusive). For the same compound, the EC50 (BJ [10]) was 43.3 µM (active).
